Test results from PubChem BioAssay (NCI).
Where “and” joins values, the source holds several entries; their conditions need not be identical. Equal entries are not always repeated.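 Method: 48-hour compound exposure of cells in 96-well plates, five concentrations, linear interpolation of endpoints. At the GI50, growth is halved. TGI denotes the concentration required for complete inhibition of growth.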

Legend:
Test in all cases: NCI tumour cell line growth inhibition, 48 h
[1] = system: OVCAR-8 ovarian
[2] = system: ACHN renal
[3] = system: KM12 colon
[4] = system: HCT-15 colon
[5] = system: CCRF-CEM leukemia
[6] = system: HOP-92 NSCLC
[7] = system: OVCAR-3 ovarian
[8] = system: SF-539 CNS
[9] = system: HCT-116 colon
[10] = system: OVCAR-4 ovarian

Row | Structure (SMILES) | GI50 [1] | TGI [1] | GI50 [2] | TGI [2] | GI50 [3] [µM] | TGI [3] [µM] | GI50 [4] | TGI [4] | GI50 [5] | TGI [5] [µM] | GI50 [6] | TGI [6] | GI50 [7] [µM] | TGI [7] [µM] | GI50 [8] | TGI [8] | GI50 [9] | TGI [9] | GI50 [10] [µM] | TGI [10] [µM]
1 | CCN1C(=O)NC(=O)C(C)(N2C(=O)c3c(F)c(F)c(F)c(F)c3C2=O)C1=O (centres undefined) | 3.55 µM | 22.6 µM | 2.03 µM | 3.94 µM | 2.11 | 4.56 | 2.86 µM | 11.1 µM | 1.89 µM | 4.54 | 1.86 µM | 4.12 µM | 1.71 | 3.22 | 2.89 µM | 8.02 µM | 2.36 µM | 7.31 µM | 2.44 | 6.31
2 | COc1ccc(C2=NN(C(=O)c3cc(OC)c(OC)c(OC)c3)C(c3ccc(Cl)cc3)C2)cc1OC (centres undefined) | 4.63 µM | > 58.6 µM | 2.32 µM | 41.3 µM | 1.77 | > 100 | 1.79 µM | > 100 µM | 2.34 µM | > 100 | – | 5.41 µM | 0.464 | 1.71 | 2.06 µM | > 82.8 µM | 2.04 µM | 19.7 µM | 5.22 | 49.6
3 | CC(C)(C#N)c1cc(F)cc(C(=O)Nc2cc(Nc3ncccc3-c3ncnc4nc[nH]c34)ccc2F)c1 | 3.16 µM | > 10 µM | 1.85 µM | > 10 µM | 1.73 | > 10 | 3.59 µM | > 10 µM | 3.91 µM | > 10 | 0.137 µM | 0.842 µM | 5.5 | > 10 | 0.527 µM | 5.65 µM | 0.212 µM | > 10 µM | 4.71 | > 10
4 | Cn1c(O)c(C(/C=C/c2ccccc2)=NCCN=C(/C=C/c2ccccc2)c2c(O)n(C)c(=O)n(C)c2=O)c(=O)n(C)c1=O | 16.6 µM | > 50 µM | 21.2 µM | > 50 µM | 14.1 | > 50 | 14.5 µM | > 50 µM | 12.4 µM | > 50 | 12 µM | 32.5 µM | 21 | > 50 | 13.7 µM | 33.3 µM | 13.6 µM | > 50 µM | 13.9 | > 50
5 | CC/C(=C(/CC)c1ccc([O-])cc1)c1ccc([O-])cc1.CC/C(=C(\CC)c1ccc([O-])cc1)c1ccc([O-])cc1.O=C([CH-]C(=O)c1ccccc1)c1ccccc1.O=C([CH-]C(=O)c1ccccc1)c1ccccc1.O=C([CH-]C(=O)c1ccccc1)c1ccccc1.O=C([CH-]C(=O)c1ccccc1)c1ccccc1.[Ti+4].[Ti+4] | 20.7 µM | 50.1 µM | 35.2 µM | > 100 µM | 26.3 | > 100 | 39.4 µM | > 100 µM | 21 µM | 93.8 | 19.5 µM | 50 µM | 24.9 | > 100 | 20 µM | 40.8 µM | 28.8 µM | > 100 µM | 42.9 | > 100
6 | O=C(O)Cc1cccc2c1Oc1ccccc1S2 | – | > 100 µM | – | > 100 µM | – | > 100 | – | > 100 µM | – | > 100 | – | > 100 µM | – | > 100 | – | > 100 µM | – | > 100 µM | – | > 100
7 | c1ccc(-c2cc(C3CO3)c3ccccc3n2)cc1 (centres undefined) | – | 43.2 µM | – | 32.8 µM | – | 33 | – | 40.7 µM | – | > 100 | – | 39.2 µM | – | 33.7 | – | 56.7 µM | – | 30.2 µM | – | 37.2
8 | CCOC(=O)c1c2c(n(Cc3ccccc3)c1C)-c1ccccc1C(=O)C2=O | 14.9 µM | 43.7 µM | 12.9 µM | 30.2 µM | 19.8 | 65.3 | 15.3 µM | 30.8 µM | 3.36 µM | 13.5 | 6.54 µM | 21.6 µM | 12.2 | 29.3 | 18.7 µM | 34.4 µM | 11.6 µM | 25.2 µM | 10.9 | 25.4
9 | O=C(Nc1ccc(Cl)cc1F)c1cc(I)ccc1O | 2.02 µM | 9.96 µM | 1.81 µM | 10.1 µM | 2.15 | 4.98 | 2.41 µM | 10.2 µM | 2.78 µM | 9.77 | 0.171 µM | 0.679 µM | 1.66 | 16.1 | 1.1 µM | 5.78 µM | 1.22 µM | 2.87 µM | 2.04 | 15.5
10 | O=C1c2ccccc2C(=Cc2ccccc2)c2ccccc21 | 2.19 µM | 5.26 µM | 3.89 µM | 13.4 µM | 1.8 | 9.81 | 2.16 µM | 21.8 µM | 2.77 µM | 29 | 1.45 µM | 5.17 µM | 2.56 | 9.11 | 3.57 µM | 11.9 µM | 1.89 µM | 5.13 µM | 4.31 | 24.4
11 | Cc1cccc(C(=O)/C=C/SC(=NC#N)SCc2ccccc2)c1 | 35.6 µM | > 100 µM | 25.6 µM | 67 µM | 31.6 | > 100 | 39.1 µM | > 100 µM | 3.23 µM | > 100 | 12.3 µM | 47.9 µM | 16.7 | 89.7 | 6.67 µM | 31.7 µM | 27.2 µM | > 100 µM | > 100 | > 100
12 | CCSC1(SCC)CC(Cc2ccc(OC)cc2)N(C=NC(C)(C)C)C1 (centres undefined) | – | > 100 µM | – | > 100 µM | – | 64.8 | – | > 100 µM | – | 52.4 | – | 25 µM | – | > 100 | – | > 100 µM | – | 92.8 µM | – | > 100
13 | CCN1C(NN)=NS(=O)(=O)c2ccccc21 | – | > 100 µM | – | > 100 µM | – | > 100 | – | > 100 µM | – | > 100 | – | > 100 µM | – | > 100 | – | > 100 µM | – | > 100 µM | – | > 100
14 | O=C(O)CCC(=O)c1ccc2ccc3cccc4ccc1c2c34 | – | > 100 µM | – | > 100 µM | – | > 100 | – | > 100 µM | – | > 100 | – | > 100 µM | – | > 100 | – | 68 µM | – | > 100 µM | – | > 100
15 | COC(=O)[C@]12CC[C@@H](C)[C@H](C)[C@@H]1C1=CC[C@@H]3[C@@]4(C)C(C=O)=C[C@@](C)(COC(=O)c5ccco5)[C@@H]4C(=O)C[C@@]3(C)[C@]1(C)CC2 | 5.55 µM | > 100 µM | 1.22 µM | > 100 µM | 4.26 | > 100 | 3.96 µM | > 100 µM | 2.42 µM | 12.6 | 1.37 µM | 91 µM | 5.75 | > 100 | 23 µM | > 100 µM | 3.68 µM | > 100 µM | 3.57 | > 100
16 | COC1CCC(O)C(/C=C/[N+](=O)[O-])C1 (centres undefined) | – | 4.69 µM | – | 29.9 µM | – | 16.9 | – | 4.69 µM | – | > 100 | – | 26.6 µM | – | 22.3 | – | 16.6 µM | – | 4.58 µM | – | 28.4
17 | CC(=O)c1c(C)n(C)c2c1nnc1ccccc12 | – | > 100 µM | – | > 100 µM | – | > 100 | – | > 100 µM | – | > 100 | – | > 100 µM | – | > 100 | – | > 100 µM | – | > 100 µM | – | > 100
18 | CN(C)c1ccc(/C=C(\C#N)c2nc3ccccc3n2C)cc1 | 4.79 µM | > 72.9 µM | 11.6 µM | > 100 µM | 1.59 | 18.4 | 1.29 µM | > 87.6 µM | 3.36 µM | 16 | 5.68 µM | 28.9 µM | 1.33 | 3.73 | 2.24 µM | 6.94 µM | 1.41 µM | > 100 µM | 4.22 | > 21.9
19 | O=C([O][Hg][CH2]C1COC([CH2][Hg][O]C(=O)c2ccccc2)CO1)c1ccccc1 (centres undefined) | 10.7 µM and 1.92 µM | 25.4 µM and 4.42 µM | 8.92 µM and 1.67 µM | 20.7 µM and 3.08 µM | 31.1 | 46 | 2.83 µM and 1.63 µM | 5.67 µM and 3.15 µM | 0.958 µM and 1.17 µM | 3.64 | 1.87 µM and 1.94 µM | 4.16 µM and 3.37 µM | 7.93 | 21.9 | 15.8 µM and 14.4 µM | 29.7 µM and 30.5 µM | 4.24 µM and 1.39 µM | 14.7 µM and 2.68 µM | 11.3 | 25.2
20 | COc1ccc2c(c1)C(=O)c1c-2c(Nc2ccc(C(C)=O)cc2)nc2ccccc12 | 18 µM | 64.9 µM | 53.5 µM | > 100 µM | > 100 | > 100 | > 100 µM | > 100 µM | > 100 µM | > 100 | 24 µM | 73.7 µM | > 100 | > 100 | 15.5 µM | 44.5 µM | 4.17 µM | 19.2 µM | 58.3 | > 100
